Tested on: cell-free peptide synthesis system derived from Escherichia coli
Test: Cell-free biosynthesis of DHFR partial sequence-HiBiT fusion proteins with tag, 10 minutes, Nano Glo HiBiT quantification
Format: biochemical
Text: Regarding the effect of increasing the biosynthesis amount of the polypeptide by the tag (VKKTKT tag) represented by SEQ ID NO: 27, the influence of the length of the polypeptide to be synthesized was examined. The polypeptide to be biosynthesized is a fusion protein containing a partial sequence of dihydrofolate reductase (DHFR) and a luminescent (HiBiT) tag.
A fusion protein in which a partial sequence of DHFR and a HiBiT tag were linked in this order was designed. Gly-Gly-Ser was inserted as a spacer between the partial sequence of DHFR and the HiBiT tag. The amino acid sequences of these fusion proteins are set forth in SEQ ID NOs: 113 and 114, and these fusion proteins are a fusion protein (80 amino acid length) of the amino acids ranging to the amino acid at position 66 from the N-terminal of DHFR with a HiBiT tag and a fusion protein (100 amino acid length) of the amino acids ranging to the amino acid at position 86 from the N-terminal of DHFR with a HiBiT tag. The base sequences encoding these fusion proteins are SEQ ID NOs: 115 and 116.
A base sequence encoding a tagged fusion protein in which methionine, a VKKTKT tag (SEQ ID NO: 27) or a SKIK tag (SEQ ID NO: 107), and a fusion protein (any of SEQ ID NO: 113 or 114) were linked in this order was designed. In this base sequence, a base sequence (SEQ ID NO: 73 or 110) encoding a VKKTKT tag or a SKIK tag is arranged immediately after the start codon ATG, and a base sequence (any of SEQ ID NO: 115 or 116) encoding a fusion protein is arranged immediately after the base sequence encoding the VKKTKT tag or the SKIK tag.
As a control example for evaluating the effect of the VKKTKT tag or the SKIK tag, a base sequence in which a base sequence (any of SEQ ID NO: 115 or 116) encoding each of fusion protein arranged immediately after the start codon ATG was designed.
The fusion protein was expressed using a cell-free peptide synthesis system similar to the cell-free peptide synthesis system used in Example 1 by setting the incubation time of biosynthesis to 10 minutes. The obtained fusion protein was quantified using Nano Glo HiBiT Lytic Detection System (Promega, N3040). The measurement was performed twice, and the average value of the amounts of the fusion protein was calculated. […] The control example of the reference value 1 has a form in which the base sequence (SEQ ID NO: 115 or 116) encoding the fusion protein is arranged immediately after the start codon ATG.

[1] = fusion protein SEQ ID NO 113, amino acid length 80, control without tag = 1
[2] = fusion protein SEQ ID NO 114, amino acid length 100, control without tag = 1

Substance | Biosynthesis amount of fusion protein [1] | Biosynthesis amount of fusion protein [2]
SEQ ID NO: 27: VKKX tag, amino acid sequence VKKTKT (VKKX Tag) | 1.67 | 1.24
SEQ ID NO: 107: tag consisting of an amino acid sequence of SKIK, disclosed in WO2016/204198A; comparative control (SKIK Tag) [reference compound] | 1.13 | 0.73
